Assay results from the NIST ThermoML archive (doi:10.1021/je020189p).
Values joined by “and” are separate entries in the source; they are usually repeats but may differ in a detail not shown here. Equal values may be shown once. ± gives the expanded uncertainty stated by the source.

Details: Liquid

[Cl-].[Cl-].[Cl-].[Gd+3] [gadolinium(III) chloride]
Details | vapor or sublimation pressure
930 K | 3.31e-05 ± 1e-05 kPa
952 K | 6.76e-05 ± 2.1e-05 kPa
957 K | 8.32e-05 ± 2.5e-05 kPa
958 K | 6.31e-05 ± 1.9e-05 kPa
965 K | 7.76e-05 ± 2.4e-05 kPa
970 K | 0.000129 ± 3.9e-05 kPa
973 K | 9.77e-05 ± 2.9e-05 kPa
983 K | 0.000141 ± 4.3e-05 kPa and 0.000178 ± 5.4e-05 kPa
994 K | 0.000195 ± 5.9e-05 kPa
996 K | 0.000224 ± 6.8e-05 kPa
1002 K | 0.000324 ± 9.7e-05 kPa
1004 K | 0.000251 ± 7.6e-05 kPa
1011 K | 0.000331 ± 0.0001 kPa
1015 K | 0.000355 ± 0.00011 kPa
1022 K | 0.000562 ± 0.00017 kPa
1023 K | 0.000479 ± 0.00015 kPa
1024 K | 0.00049 ± 0.00015 kPa
1042 K | 0.000794 ± 0.00024 kPa
1044 K | 0.001 ± 0.0003 kPa
1046 K | 0.001 ± 0.0003 kPa
1052 K | 0.00102 ± 0.00031 kPa
1054 K | 0.00141 ± 0.00042 kPa
1061 K | 0.00135 ± 0.00041 kPa
1062 K | 0.00138 ± 0.00041 kPa
1071 K | 0.00174 ± 0.00052 kPa
1076 K | 0.00219 ± 0.00066 kPa
1082 K | 0.00234 ± 0.0007 kPa
1086 K | 0.00269 ± 0.00081 kPa
1090 K | 0.00275 ± 0.00083 kPa
1091 K | 0.00339 ± 0.001 kPa
1093 K | 0.00302 ± 0.00091 kPa
1099 K | 0.00339 ± 0.001 kPa
1103 K | 0.00437 ± 0.0013 kPa
1107 K | 0.00417 ± 0.0013 kPa
1113 K | 0.00575 ± 0.0017 kPa
1116 K | 0.00513 ± 0.0015 kPa
1117 K | 0.00603 ± 0.0018 kPa
1120 K | 0.00589 ± 0.0018 kPa and 0.00603 ± 0.0018 kPa
1126 K | 0.00759 ± 0.0023 kPa and 0.00661 ± 0.002 kPa
1134 K | 0.00871 ± 0.0026 kPa
1135 K | 0.00794 ± 0.0024 kPa
1138 K | 0.00977 ± 0.0029 kPa
1144 K | 0.01 ± 0.003 kPa
1147 K | 0.0129 ± 0.0039 kPa
1151 K | 0.0126 ± 0.0038 kPa
1154 K | 0.0132 ± 0.004 kPa
1156 K | 0.0158 ± 0.0048 kPa
1165 K | 0.0182 ± 0.0055 kPa
1170 K | 0.0219 ± 0.0066 kPa
1177 K | 0.024 ± 0.0072 kPa
1187 K | 0.0324 ± 0.0097 kPa
1190 K | 0.0316 ± 0.0095 kPa
1203 K | 0.0407 ± 0.012 kPa
1213 K | 0.0501 ± 0.015 kPa
